Patent US11332771B2, “Serum-free cell culture medium” (Regeneron Pharmaceuticals, Inc., priority 2013, dated 2022)
Counter-ions that a name gives are not always drawn. Like-named read-outs stand apart in the source and are kept apart here.

Legend:
CHO-K1 derived cell line = details: for Average seven-day antibody titer: 100 mg/L ornithine.HCl, with or without 115 mg/L putrescine.2HCl
Experimental: We examined the expression and secretion of recombinant IgG by a CHO-K1 derived cell line. In this experiment, the average antibody titer was determined at day seven in culture under various media formats.

[1] = test system: recombinant antibody producing cell line derived from CHO K1; experiment: Antibody titer in Medium 3 with various amounts of ornithine.HCl, 50 mL TubeSpin Bioreactors; type: cell-based, Chinese hamster; details: Medium 3, three days, all three levels of ornithine supplementation, N=3
From the text: The results are depicted in Table 6.

[2] = test system: recombinant antibody producing cell line derived from CHO K1 cells; experiment: Cell doubling time in logarithmic growth phase, seed train cultures passaged over 14 days; type: cell-based, Chinese hamster; details: ornithine.HCl 100 mg/L, with or without putrescine.2HCl 115 mg/L
Experimental: The doubling time of a recombinant antibody producing cell line derived from CHO K1 cells in logarithmic growth phase was determined under various cell culture media conditions. Seed train cultures were passaged at 36.5° C. in 250 mL shaker flasks over a period of 14 days in each of three separate media: Medium 1, Medium 2, and Medium 2 containing soy hydrolysate (Medium 2+ Soy). Aliquots of 1 mL were removed from each condition on Day 0 and at the time of seed train passage (every 2 or 3 days), and viable cell counts were conducted using trypan blue exclusion on a CDV™ instrument (Nova Biomedical).

## NCCC[C@H](N)C(=O)O [Ornithine, L-ornithine.HCl]
CHO-K1 derived cell line; Medium 1
  Average seven-day antibody titer: 0.94 g/L
CHO-K1 derived cell line; Medium 2 + Soy
  Average seven-day antibody titer: 0.98 g/L
CHO-K1 derived cell line; Medium 2
  Average seven-day antibody titer: 0.65 g/L
CHO-K1 derived cell line; day seven, in all cases (Medium 1, Medium 2, Medium 2+ Soy), versus low putrescine 0.4 mg/L
  Increase in protein titer: at least about two-fold
[1]
  Improvement of antibody titer on the average: more than 50%
[2]; Medium 1
  Cell doubling time: 23 h
[2]; Medium 2 + Soy
  Cell doubling time: 20.5 h
[2]; Medium 2
  Cell doubling time: 21 h
